A short description of data set [1]: In-situ salt formation screen (filtrate solubility). Type of data set: physicochemical. The note with it: thermodynamic from solid, read-out: Filtrate Solubility.
In data set [2] the target is T1, human H4 (Homo sapiens, UniProt Q9H3N8).
T1 construct: host or cells: CHO-K1
Briefly: In vitro histamine receptor cell-based assay (aequorin bioluminescence), antagonist mode. As to conditions: CHO-K1 cells expressing human H4, aequorin and Gα16; histamine at EC80. Here is the method:
(§1) The cell-based assays utilize an aequorin dependent bioluminescence signal. Doubly-transfected, stable CHO-K1 cell lines expressing human H4, or H1, mitochondrion-targeted aequorin, and (H4 only) human G protein Gα16 are obtained from Perkin-Elmer. Cells are maintained in F12 (Ham's) growth medium, containing 10% (vol./vol.) fetal bovine serum, penicillin (100 IU/mL), streptomycin (0.1 mg/mL), zeocin (0.25 mg/mL) and geneticin (0.40 mg/mL). Cell media components are from Invitrogen, Inc. One day prior to assay, the growth medium is replaced with the same, excluding zeocin and geneticin. In some assays, cells previously frozen at “ready to use density” are thawed and immediately available for loading with coelenterazine-h dye as described below. […]
(§2) Just before assay, the dye-loaded cells are diluted to 1.5×10^6 cells/mL (H4 receptor) or 0.75×10^6 cells/mL (H1 receptor) with additional assay medium. […] Assay plates are then transferred to a Lumilux bioluminescence plate reader (Perkin-Elmer) equipped with an automated 1536 disposable tip pipette. The pipette dispenses 3 μL/well of agonist (histamine, at twice the final concentration, where final concentration is a previously determined EC80) in assay medium, with concurrent bioluminescence detection. […] Efficacy is measured as a percentage of positive control activity.

The target of data set [3] is T1, human H4. Kind of data set: In vitro histamine receptor cell-based assay (aequorin bioluminescence), agonist mode. As to conditions: CHO-K1 cells expressing human H4; test compound alone, without added histamine. Here is the method: as §1, §2
A further data set has as its system BALB/c mice. Kind of data set: Model of allergic rhinitis in Balb/C mice, whole-body plethysmography. Type of data set: in vivo. On the set-up: key: +: increase in RF over positive control; −: no increase in RF over positive control. As to conditions: 0.1%, w/v, intranasal instillation 10 μl in each nostril 2.5 hours prior to OVA; day 4 (early phase). From the text: Female BALB/c mice, 6-12 weeks of age, were obtained from Jackson Laboratories (Bar Harbor, Me.). All experimental animals used in this work were under a protocol approved by the Institutional Animal Care and Use Committee of the National Jewish Medical and Research Center, Denver, Colo.
The assay protocol is similar to that described in Miyahara, S. et al. (2005), J Allergy Clin Immunol., 116:1020-1027. The role of the H4 receptor in this model has been validated [Shiraishi, Y. et al. (2009), J Allergy Clin Immunol., 123:556]. Briefly, mice received intraperitoneal injections of 20 μg ovalbumin (OVA, Grade V; Sigma-Aldrich, St. Louis, Mo.), previously emulsified in 2.25 mg of alum (AlumImuject; Pierce, Rockford, Ill.) in a total volume of 100 μL (sensitization phase). Injections occurred on days 0 and 14. […] On day 4 (early phase) and day 7 (late phase) after starting OVA challenges, respiratory frequency (RF) was measured in conscious animals by single chamber restrained whole-body plethysmography (WBP) [Buxco Research Systems, Troy, N.Y.]. […] After whole-body plethysmography on day 7, nasal airflow impedance was measured as described (RNA, see Methods section for Miyahara S. et al. [above] in the online supplemental material at the Journal of Allergy and Clinical Immunology: www.jacionline.org), using a custom-designed ventilator (Flexivent; Scireq, Montreal, Quebec, Canada). […]

Read-outs that look alike come from different tables or passages of the source. Where only a bound is given, the exact number is not on record here.

Usually solubility stands for the dissolved amount per volume that the medium holds. In general, EC50 refers to the concentration that produces a half-maximal response.

T1 sequence (Q9H3N8 whole entry): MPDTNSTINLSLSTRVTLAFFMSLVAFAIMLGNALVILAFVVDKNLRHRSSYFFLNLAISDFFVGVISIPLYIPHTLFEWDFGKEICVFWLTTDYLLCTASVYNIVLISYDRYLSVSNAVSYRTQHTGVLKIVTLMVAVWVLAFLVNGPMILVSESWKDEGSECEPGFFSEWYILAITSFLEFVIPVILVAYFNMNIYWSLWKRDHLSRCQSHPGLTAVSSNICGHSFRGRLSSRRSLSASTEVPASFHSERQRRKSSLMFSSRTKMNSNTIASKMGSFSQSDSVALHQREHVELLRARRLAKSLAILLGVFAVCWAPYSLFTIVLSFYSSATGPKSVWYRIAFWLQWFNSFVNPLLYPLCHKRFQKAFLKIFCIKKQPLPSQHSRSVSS

As for `CNC1CN(c2ncc(-c3cccs3)n3nnnc23)C1` [Compound 2, N-methyl-1-(5-(thiophen-2-yl)tetrazolo[1,5-a]pyrazin-8-yl)azetidin-3-amine], the solubility at 48 h in data set [1] (aqueous buffer, 0.1M aqueous Acetic Acid, filtrate pH 5.41, No Solids Isolated) is over 24500 µg/mL; in data set [1] (aqueous buffer, 0.1M aqueous Citric Acid, filtrate pH 3.69, filtrant Salt), 4270 µg/mL; in data set [1] (aqueous buffer, 0.1M aqueous L-Aspartic Acid, filtrate pH 4.95, No Solids Isolated), over 18400 µg/mL; in data set [1] (aqueous buffer, 0.1M aqueous L-Glutamic Acid, filtrate pH 5.46, filtrant Free Base), 10400 µg/mL; in data set [1] (aqueous buffer, 0.1M aqueous L-Malic Acid, filtrate pH 5.13, No Solids Isolated), over 21100 µg/mL; in data set [1] (aqueous buffer, 0.1M aqueous L-Tartaric Acid, filtrate pH 3.23, filtrant Salt) it was 1390 µg/mL. Also, the solubility at 48 h was over 25300 µg/mL in data set [1] (aqueous buffer, 0.1M aqueous Mesic Acid, filtrate pH 2.28, No Solids Isolated); 740 µg/mL in data set [1] (aqueous buffer, 0.1M aqueous Phosphoric Acid, filtrate pH 4.8, filtrant Salt); 100 µg/mL in data set [1] (aqueous buffer, 0.1M aqueous Succinic Acid, filtrate pH 4.75, filtrant Salt); 610 µg/mL in data set [1] (aqueous buffer, 0.1M aqueous Sulfuric Acid, filtrate pH 1.42, filtrant Salt); 15200 µg/mL in data set [1] (simulated gastric fluid, 0.1M aqueous Hydrochloric Acid, filtrate pH 2.32, filtrant Salt). The EC50 is at most 10 µM at human H4 [2] and over 100 µM at human H4 [3]. Further, in the data set on BALB/c mice, the “WBP, Day 4 (respiratory frequency, RF)” value is listed as “+”.
Take `CN1CCN(c2ncc(-c3cccs3)n3nnnc23)CC1` [Compound 1, 8-(4-Methylpiperazin-1-yl)-5-(thiophen-2-yl)tetrazolo[1,5-a]pyrazine]: the solubility at 48 h in data set [1] (aqueous buffer, 0.1M aqueous Acetic Acid, filtrate pH 4.02, filtrant Free Base) came to 7990 µg/mL; in data set [1] (aqueous buffer, 0.1M aqueous Citric Acid, filtrate pH 3.11, filtrant Salt), 1750 µg/mL; in data set [1] (aqueous buffer, 0.1M aqueous L-Glutamic Acid, filtrate pH 4.28, filtrant Free Base), 6750 µg/mL; in data set [1] (aqueous buffer, 0.1M aqueous L-Malic Acid, filtrate pH 4.15, filtrant Salt), 13400 µg/mL; in data set [1] (aqueous buffer, 0.1M aqueous L-Tartaric Acid, filtrate pH 3.48, filtrant Salt), 8690 µg/mL; in data set [1] (aqueous buffer, 0.1M aqueous Mesic Acid, filtrate pH 1.49, No Solids Isolated), 20000 µg/mL. Further, the solubility at 48 h in data set [1] (aqueous buffer, 0.1M aqueous Phosphoric Acid, filtrate pH 1.76, filtrant Salt) was 870 µg/mL; in data set [1] (aqueous buffer, 0.1M aqueous Succinic Acid, filtrate pH 4.13, filtrant Free Base) it was 10400 µg/mL; in data set [1] (aqueous buffer, 0.1M aqueous Sulfuric Acid, filtrate pH 1.39, filtrant Salt), 560 µg/mL; in data set [1] (pH 4.2, aqueous buffer, 0.1M aqueous L-Aspartic Acid, filtrate pH 4.20, filtrant Free Base) it was 8640 µg/mL; in data set [1] (simulated gastric fluid, 0.1M aqueous Hydrochloric Acid, filtrate pH 1.25, filtrant Salt) it was 990 µg/mL. Also, the EC50 on human H4 [2] was at most 10 µM; on human H4 [3], over 100 µM. Besides, the “WBP, Day 4 (respiratory frequency, RF)” value with BALB/c mice is “+”.

The values above are taken from patent US8859550B2, “Heterocyclic inhibitors of histamine receptors for the treatment of disease” (Kalypsys, Inc., priority 2011, dated 2014).
